Here are results for five compounds from patent US20230143604A1, “QW DOSING OF GIP RECEPTOR AGONIST PEPTIDE COMPOUNDS AND USES THEREOF” (TAKEDA PHARMACEUTICAL COMPANY LIMITED, priority 2020, published 2023).

One may read the solubility as the dissolved amount per volume that the medium holds.

A short description of data set [1]: Solubility in phosphate buffer pH 7.4. An outline of the steps: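 3 mg of peptide treated with 100 μL portions of 200 mM phosphate buffer pH 7.4, sonicating/vortexing up to 1 min, with further buffer added until fully dissolved. Solubility then quantified by HPLC.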
The next data set concerns C57BL/6J mice. The data set can be described thus: Oral glucose tolerance test (OGTT). As to conditions: 3 nmol/kg s.c., 24 hours before glucose loading. It counts as in vivo. As for the experimental part: An oral glucose tolerance test (OGTT) was carried out using C57BL/6J mice with a 50% dextrose solution dosed at 5 ml/kg. Testing concentrations of 0.1 nmol/kg, 0.3 nmmol/kg, 3 nmol/kg or 10 nmol/kg were selected depending on the peptide. Each peptide or a vehicle (control group) was subcutaneously administered 24 hours (unless shown otherwise) before glucose loading and the blood glucose was measured at 0, 15, 30, and 60 minutes after glucose dosing.
% inhibition=(1−(AUC cpd−AUC naïve/AUC veh−AUC naïve))×100.

The mark [2] stands for this setting: pH 7.4, aqueous buffer, pH 7.4 Phosphate Buffer - Solubility, 200 mM Phosphate buffer pH 7.4.
Where [3] appears, read: pH 7.4, solubility in phosphate buffer at pH 7.4, 200 mM phosphate buffer pH 7.4.

Molecules are shown by their SMILES. Where only a bound is given, the exact number is not on record here.

Consider `CC[C@H](C)[C@H](NC(=O)[C@H](Cc1ccccc1)NC(=O)[C@@H](NC(=O)CNC(=O)[C@H](CCC(=O)O)NC(=O)C(C)(C)NC(=O)[C@H](Cc1ccc(O)cc1)NC)[C@@H](C)O)C(=O)N[C@@H](CO)C(=O)N[C@@H](CC(=O)O)C(=O)N[C@@H](Cc1ccc(O)cc1)C(=O)N[C@@H](CO)C(=O)N[C@H](C(=O)NC(C)(C)C(=O)N[C@@H](CCCCNC(=O)CNC(=O)CNC(=O)CNC(=O)CNC(=O)CNC(=O)CCCCCCCCCCCCCCCCC(=O)O)C(=O)N[C@@H](CC(=O)O)C(=O)N[C@@H](CCCNC(=N)N)C(=O)NC(C)(C)C(=O)N[C@@H](C)C(=O)N[C@@H](CCC(N)=O)C(=O)NC(C)(C)C(=O)N[C@@H](CC(=O)O)C(=O)N[C@@H](Cc1ccccc1)C(=O)N[C@H](C(=O)N[C@@H](CC(N)=O)C(=O)N[C@@H](Cc1c[nH]c2ccccc12)C(=O)N[C@@H](CC(C)C)C(=O)N[C@@H](CC(C)C)C(=O)N[C@@H](C)C(=O)N[C@@H](CCC(N)=O)C(=O)N[C@@H](CCCNC(=N)N)C(=O)N1CCC[C@H]1C(=O)N[C@@H](CO)C(=O)N[C@@H](CO)C(=O)NCC(=O)N[C@@H](C)C(=O)N1CCC[C@H]1C(=O)N1CCC[C@H]1C(=O)N1CCC[C@H]1C(=O)N[C@@H](CO)C(=O)O)C(C)C)[C@@H](C)CC` [Compound 54], for which the solubility was at least 30 mg/mL in data set [1] (setting [2]) and at least 15 mg/mL in data set [1] (setting [3]). The “Oral Glucose Tolerance Test Percent decrease in blood glucose AUC (%) over 60 mins” value in the data set on C57BL/6J mice was 43% (3 nmol/kg).

Turning to `CC[C@H](C)[C@H](NC(=O)[C@H](Cc1ccccc1)NC(=O)[C@@H](NC(=O)CNC(=O)[C@H](CCC(=O)O)NC(=O)C(C)(C)NC(=O)[C@H](Cc1ccc(O)cc1)NC)[C@@H](C)O)C(=O)N[C@@H](CO)C(=O)N[C@@H](CC(=O)O)C(=O)N[C@@H](Cc1ccc(O)cc1)C(=O)N[C@@H](CO)C(=O)N[C@H](C(=O)NC(C)(C)C(=O)N[C@@H](CCCCNC(=O)CNC(=O)CNC(=O)CNC(=O)CNC(=O)CNC(=O)CCCCCCCCCCCCCCCCC(=O)O)C(=O)N[C@@H](CC(=O)O)C(=O)N[C@@H](CCCNC(=N)N)C(=O)NC(C)(C)C(=O)N[C@@H](C)C(=O)N[C@@H](CCC(N)=O)C(=O)NC(C)(C)C(=O)N[C@@H](CC(=O)O)C(=O)N[C@@H](Cc1ccccc1)C(=O)N[C@H](C(=O)N[C@@H](CC(N)=O)C(=O)N[C@@H](Cc1c[nH]c2ccccc12)C(=O)N[C@@H](CC(C)C)C(=O)N[C@@H](CC(C)C)C(=O)N[C@@H](C)C(=O)N[C@@H](CCC(N)=O)C(=O)N[C@@H](CO)C(=O)N1CCC[C@H]1C(=O)N[C@@H](CO)C(=O)N[C@@H](CO)C(=O)NCC(=O)N[C@@H](C)C(=O)N1CCC[C@H]1C(=O)N1CCC[C@H]1C(=O)N1CCC[C@H]1C(=O)N[C@@H](CO)C(=O)O)C(C)C)[C@@H](C)CC` [Compound 47], the solubility in data set [1] (setting [2]) was at least 30 mg/mL; in data set [1] (setting [3]), at least 15 mg/mL. Moreover, in the data set on C57BL/6J mice, the “Oral Glucose Tolerance Test Percent decrease in blood glucose AUC (%) over 60 mins” value is reported as 48% (3 nmol/kg).

`CC[C@H](C)[C@H](NC(=O)[C@H](Cc1ccccc1)NC(=O)[C@@H](NC(=O)CNC(=O)[C@H](CCC(=O)O)NC(=O)C(C)(C)NC(=O)[C@H](Cc1ccc(O)cc1)NC)[C@@H](C)O)C(=O)N[C@@H](CO)C(=O)N[C@@H](CC(=O)O)C(=O)N[C@@H](Cc1ccc(O)cc1)C(=O)N[C@@H](CO)C(=O)N[C@H](C(=O)NC(C)(C)C(=O)N[C@@H](CCCCNC(=O)CNC(=O)CNC(=O)CNC(=O)CNC(=O)CNC(=O)CCCCCCCCCCCCCCCCC(=O)O)C(=O)N[C@@H](CC(=O)O)C(=O)N[C@@H](CCCNC(=N)N)C(=O)NC(C)(C)C(=O)N[C@@H](C)C(=O)N[C@@H](CCC(N)=O)C(=O)NC(C)(C)C(=O)N[C@@H](CC(N)=O)C(=O)N[C@@H](Cc1ccccc1)C(=O)N[C@H](C(=O)N[C@@H](CC(N)=O)C(=O)N[C@@H](Cc1c[nH]c2ccccc12)C(=O)N[C@@H](CC(C)C)C(=O)N[C@@H](CC(C)C)C(=O)N[C@@H](C)C(=O)N[C@@H](CCC(N)=O)C(=O)N[C@@H](CO)C(=O)N1CCC[C@H]1C(=O)N[C@@H](CO)C(=O)N[C@@H](CO)C(=O)NCC(=O)N[C@@H](C)C(=O)N1CCC[C@H]1C(=O)N1CCC[C@H]1C(=O)N1CCC[C@H]1C(=O)N[C@@H](CO)C(=O)O)C(C)C)[C@@H](C)CC` [Compound 96]: the solubility was at least 60 mg/mL in data set [1] (setting [2]) and at least 15 mg/mL in data set [1] (setting [3]). Moreover, the “Oral Glucose Tolerance Test Percent decrease in blood glucose AUC (%) over 60 mins” value in the data set on C57BL/6J mice was 80% (3 nmol/kg).

Take `CC[C@H](C)[C@H](NC(=O)[C@H](CO)NC(=O)[C@H](Cc1ccc(O)cc1)NC(=O)[C@H](CC(=O)O)NC(=O)[C@H](CO)NC(=O)[C@@H](NC(=O)[C@H](Cc1ccccc1)NC(=O)[C@@H](NC(=O)CNC(=O)[C@H](CCC(=O)O)NC(=O)C(C)(C)NC(=O)[C@@H](N)Cc1ccc(O)cc1)[C@@H](C)O)[C@@H](C)CC)C(=O)N[C@@H](C)C(=O)N[C@@H](CCCCNC(=O)CNC(=O)CNC(=O)CNC(=O)CNC(=O)CNC(=O)CCCCCCCCCCCCCCCCC(=O)O)C(=O)N[C@@H](CC(=O)O)C(=O)N[C@@H](CCCNC(=N)N)C(=O)NC(C)(C)C(=O)N[C@@H](C)C(=O)N[C@@H](CCC(N)=O)C(=O)NC(C)(C)C(=O)N[C@@H](CC(N)=O)C(=O)N[C@@H](Cc1ccccc1)C(=O)N[C@H](C(=O)N[C@@H](CC(N)=O)C(=O)N[C@@H](Cc1c[nH]c2ccccc12)C(=O)N[C@@H](CC(C)C)C(=O)N[C@@H](CC(C)C)C(=O)N[C@@H](C)C(=O)N[C@@H](CCC(N)=O)C(=O)N[C@@H](CO)C(=O)N1CCC[C@H]1C(=O)N[C@@H](CO)C(=O)N[C@@H](CO)C(=O)NCC(=O)N[C@@H](C)C(=O)N1CCC[C@H]1C(=O)N1CCC[C@H]1C(=O)N1CCC[C@H]1C(=O)N[C@@H](CO)C(=O)O)C(C)C` [Compound 138]: the figures for the solubility in data set [1] (setting [2]) and in data set [1] (setting [3]) were at least 30 mg/mL and at least 15 mg/mL, respectively. The “Oral Glucose Tolerance Test Percent decrease in blood glucose AUC (%) over 60 mins” value in the data set on C57BL/6J mice is 80% (3 nmol/kg).

As to `CC[C@H](C)[C@H](NC(=O)[C@H](Cc1ccccc1)NC(=O)[C@@H](NC(=O)CNC(=O)[C@H](CCC(=O)O)NC(=O)C(C)(C)NC(=O)[C@@H](N)Cc1ccc(O)cc1)[C@@H](C)O)C(=O)N[C@@H](CO)C(=O)N[C@@H](CC(=O)O)C(=O)N[C@@H](Cc1ccc(O)cc1)C(=O)N[C@@H](CO)C(=O)N[C@H](C(=O)NC(C)(C)C(=O)N[C@@H](CCCCNC(=O)CNC(=O)CNC(=O)CNC(=O)CNC(=O)CNC(=O)CCCCCCCCCCCCCCCCC(=O)O)C(=O)N[C@@H](CC(=O)O)C(=O)N[C@@H](CCCNC(=N)N)C(=O)NC(C)(C)C(=O)N[C@@H](C)C(=O)N[C@@H](CCC(N)=O)C(=O)N[C@@H](C)C(=O)N[C@@H](CC(=O)O)C(=O)N[C@@H](Cc1ccccc1)C(=O)N[C@H](C(=O)N[C@@H](CCC(=O)O)C(=O)N[C@@H](Cc1c[nH]c2ccccc12)C(=O)N[C@@H](CC(C)C)C(=O)N[C@@H](CC(C)C)C(=O)N[C@@H](C)C(=O)N[C@@H](CCC(N)=O)C(=O)N[C@@H](CCCNC(=N)N)C(=O)NCC(=O)O)C(C)C)[C@@H](C)CC` [Compound 146], the solubility in data set [1] (pH 7.4) was at least 15 mg/mL; in data set [1] (pH 7.4, aqueous buffer) it was at least 30 mg/mL. The “Oral Glucose Tolerance Test Percent decrease in blood glucose AUC (%) over 60 mins” value in the data set with C57BL/6J mice is reported as 52% (3 nmol/kg).
